Results: patent publication US20100210722A1, “COMPOSITION FOR PREVENTING OR TREATING LIPID METABOLIC DISORDERS COMPRISING FUCOXANTHIN OR MARINE PLANT EXTRACT CONTAINING SAME” (AMICOGEN, INC., priority 2007, published 2010)
Marks after values point to notes of the source that are not given here.

Columns and labels:
Format in all cases: in vivo, C57BL/6N/CriBgi mice
[1] = Body weight of mice fed high fat diet with fucoxanthin extract or highly pure fucoxanthin; settings: high fat diet; for Body weight, Week 0: Week 0 (baseline); for Body weight, Week 0 / Body weight, Week 1 / Body weight, Week 2: in g (unit assumed)
Experimental: (§1) Seventy (70) 4-week-old male C57BL/6N/CriBgi mice weighing 14 g were purchased from Orient, and reared in separate cages maintained at 24° C. and relative humidity of 55%, providing light from 08:00 until 20:00. The mice were accustomed while providing a pellet type diet for a week. The mice, which weighed 18.5-18.7 g, were grouped into seven groups by the randomized block design. Each group was given a different diet, as follows.
(§2) Test diets were as follows: “normal diet group”=AIN-76 semisynthetic diet of Teklad (Madison, Wl, USA); “high fat diet group”=normal diet+10% of corn oil and 10% of lard; “test group I”=high fat diet+fucoxanthin extract of Example 1 (fucoxanthin content=0.05%); “test group II”=high fat diet+fucoxanthin extract of Example 1 (fucoxanthin content=0.2%); “test group III”=high fat diet+fucoxanthin extract of Example 2 (fucoxanthin content=0.05%); “test group IV”=high fat diet+fucoxanthin extract of Example 2 (fucoxanthin content=0.2%). The 6 diets (normal diet, high fat diet, and test I, II, III and IV) were given to the animals for 6 weeks. Diet intake was recorded every day, and body weight was measured once a week.
During the 6-week test period, body weight was measured every week. Significance of differences of means of the groups was evaluated by one-way analysis of variance (ANOVA) technique. Duncan's multiple range test was employed for post-evaluation of the groups, with P<0.05.

[2] = Triglyceride and cholesterol level in liver tissue; settings: high fat diet, 6 weeks
Experimental: as §1, §2

[3] = Amount of feces and cholesterol content in feces; settings: high fat diet, 6 weeks
Experimental: as §1, §2
Feces were taken from the mice fed with the test diets for 6 weeks of Reference Example 1. The amount of feces and cholesterol content in the feces were measured.

malic enzyme (ME) = assay: ME activity in adipose tissue; settings: high fat diet, 6 weeks
Description: as §2
(§3) The supernatant was centrifuged again at 12,000×g for 15 minutes. Then, the supernatant was subjected to high-speed centrifuging (Beckman, Optima TLX-120, USA) at 100,000×g for 1 hour. Then, change of the activity of enzymes involved in the synthesis of fatty acid—fatty acid synthase (FAS), glucose-6-phosphate dehydrogenase (G6PD) and malic enzyme (ME)—was measured.
The ME enzyme is also an enzyme that supplied reducing energy required for the synthesis of fatty acid. […] ME activity was determined as follows. […] After 2 minutes of reaction at 27° C., absorbance was measured at 340 nm. ME activity was calculated as nmol of NADPH produced per 1 mg of protein in cell per minute.

[4] = test system: fatty acid synthase (FAS); assay: FAS activity in liver tissue; settings: high fat diet, 6 weeks
Description: as §2, §3
Specifically, FAS activity was determined as follows. […] After 10 minutes of reaction at 30° C., decrease of absorbance was measured. FAS activity was calculated as nmol of NADPH oxidized per 1 mg of protein in cell per minute.

ME mRNA = assay: Expression of mRNA for ME in adipose tissue (real-time PCR); settings: normal diet = 1.00, GAPDH internal marker
Description: as §2
(§4) 5 mL of Trizol was added to 0.5 g of white adipose tissue. After pulverizing in liquid nitrogen using a mortar, the tissue was added to 1 mL of chloroform. […] The isolated RNA was diluted and absorbance was measured at 260 nm using a UV spectrometer. […]
(§5) Thus prepared cDNA was […] 10-fold, and primers for analyzing the expression of the respective genes (CPT, β-oxidation, FAS, ME and G6PD) were obtained from Genotech (Daejeon, Korea). […] Fluorescence signals were monitored for each cycle and threshold cycle (Cr) was analyzed for quantitative analysis of mRNA for the test groups (Applied Biosystems, SDS7000) (Livak, 2001). […]

G6PD mRNA = assay: Expression of mRNA for G6PD in adipose tissue (real-time PCR); settings: normal diet = 1.00, GAPDH internal marker
Description: as §2, §4, §5

[5] = fucoxanthin content 0.05% (Test I/III)
[6] = fucoxanthin content 0.2% (Test II/IV)

## CC(=O)O[C@H]1CC(C)(C)C(=C=C/C(C)=C/C=C/C(C)=C/C=C/C=C(C)/C=C/C=C(\C)C(=O)C[C@@]23O[C@]2(C)C[C@@H](O)CC3(C)C)[C@](C)(O)C1 [highly pure fucoxanthin, Fucoxanthin]
[1]; [5]
  Body weight, Week 0: 18.56 ± 0.3
  Body weight, Week 1: 20.19 ± 0.2
  Body weight, Week 2: 21.79 ± 0.3
  Body weight, Week 3: 22.70 ± 0.2^b
  Body weight, Week 4: 24.39 ± 0.3^b
  Body weight, Week 5: 26.46 ± 0.3^b
  Body weight, Week 6: 27.80 ± 0.3^b
[1]; [6]
  Body weight, Week 0: 18.58 ± 0.3
  Body weight, Week 1: 20.19 ± 0.3
  Body weight, Week 2: 22.30 ± 0.3
  Body weight, Week 3: 22.96 ± 0.4^ab
  Body weight, Week 4: 25.17 ± 0.5^ab
  Body weight, Week 5: 26.39 ± 0.6^b
  Body weight, Week 6: 27.37 ± 0.7^bc
[2]; [5]
  Triglyceride level in liver tissue: 0.14 ± 0.01^c mmol/g liver
[2]; [6]
  Triglyceride level in liver tissue: 0.17 ± 0.02^b mmol/g liver
[3]; [5]
  Amount of feces: 0.226 ± 0.01^c g/day
  Cholesterol content in feces: 237.88 ± 10.39^c umol/g
[3]; [6]
  Amount of feces: 0.209 ± 0.01^bc g/day
  Cholesterol content in feces: 508.79 ± 13.25^c umol/g
Malic enzyme (ME); [5]
  ME activity: 0.92 ± 0.14^a mmol/min/mg protein
Malic enzyme (ME); [6]
  ME activity: 0.94 ± 0.11^a mmol/min/mg protein
[4]; [5]
  FAS activity: 7.92 ± 0.59^a mmol/min/mg protein
[4]; [6]
  FAS activity: 9.49 ± 0.65^ab mmol/min/mg protein
ME mRNA; [5]
  Expression of mRNA, ME: 0.70 ± 0.07^ab
ME mRNA; [6]
  Expression of mRNA, ME: 0.52 ± 0.06^a
G6PD mRNA; [5]
  Expression of mRNA, G6PD: 1.10 ± 0.15^abc
G6PD mRNA; [6]
  Expression of mRNA, G6PD: 0.67 ± 0.04^a
